Values quoted from earlier work in patent US20070160667A1, “Controlled release formulation of divalproex sodium” (priority 2006, published 2007).
Read-outs that look alike come from different tables or passages of the source.

- elimination half-life (in adults): six and seventeen
- elimination half-life (in children): four and fourteen
Compound: CCCC(CCC)C(=O)O [valproic acid, 2-Propylpentanoic acid]
